Results: patent US20260102383A1, “LPAR1 Inhibitors” (AbbVie Inc., priority 2024, published 2026)
Marks after values point to notes of the source that are not given here.

What was measured:
[1] = system: disease-relevant skin proteins in bleomycin-induced skin fibrosis; assay: Bleomycin-evoked skin fibrosis model, skin protein levels (ELISA, MSD U-plex); type: in vivo, C57B6J mice
Method: (§1) The activity of Compound 15 was measured using a bleomycin-evoked skin fibrosis model.
(§2) For the bleomycin model of skin fibrosis, C57B6J mice were purchased at 9 to 11 weeks of age. Upon arriving, mice were group-housed 10 per cage in individually ventilated cages, with a normal 12:12 hour light: dark cycle. Animals were acclimated to the animal facilities for a period of at least 10 days prior to initiation of bleomycin model studies; mouse ears were tagged for animal identification. At the initiation of bleomycin administration, 93M diet gel was also added to the cages of all mice and available ad libitum for the duration of the experiment. For all animals studied, food and water were available ad libitum.
(§3) The upper back region of the mouse was shaved and two circles (˜1 cm diameter) were drawn onto the skin to identify the location for bleomycin injection. To induce skin fibrosis, mice received subcutaneous injections of bleomycin (10 units/kg) or phosphate-buffered saline (PBS) during Week 1 (D0-D4) and week 2 (D7-D10) at a volume of 100 μL into the two marked injection sites (for a total volume of 200 μL). […] For pharmacological assessment, mice received either vehicle or 1×, 3×, or 10×mg/kg of a dose of Compound 15 orally, twice daily, from Day 10 to 28. On Day 28, animals were humanely euthanized, and plasma and 2 to 8 mm back skin biopsy punches collected. The ALK5 inhibitor, SB-525334 was also included in the study as a positive control. SB-525334 was administered at a dose of 4.5×mg/kg following the same dosing regimen described for Compound 15. All treatments were administered at a volume of 1×mL/kg body weight.
For protein measurement, ½ of an 8-mm biopsy punch was homogenized in 500 μL DI water containing extraction buffer and cell extraction enhancer solution, using a Bead Ruptor 24 with CryoCool (OMNI). ELISA assays were performed on the lysates to measure Fibronectin and Procollagen1a1 and a multiplexed MSD U-plex assay was performed to measure MCP-1 and CXCL1. All kits were run according to the manufacturers' instructions. Skin protein levels were normalized to total protein in the lysate and expressed per milligram of total protein.
(§4) Data from gene and protein measurements were analyzed using GraphPad Prism 7 (GraphPad Software, San Diego, CA, USA). Group comparisons were conducted by a one-way ANOVA, followed by Dunnett's multiple comparisons test.
(§5) In the subcutaneous bleomycin-induced skin fibrosis mouse model, Compound 15 was assessed after the skin fibrosis was established during Days 1 through 10. Compound 15 was administered twice daily by oral gavage from Day 10 through Day 28 as described in Table C.

[2] = target: T1, human LPAR1 (Homo sapiens, UniProt Q92633); assay: Arrestin assay (Arrestin Reporter EDG2-bla U2OS), inhibition of LPA-stimulated signal; type: cell-based; settings: TangoEDG2-bla U2OS cells expressing human LPAR1; 0.25 μM LPA; read-out: Arrestin Reporter EDG2-bla U2OS Human IC50
T1 construct: host or cells: TangoEDG2-bla U2OS cells
Outline: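 TangoEDG2-bla U2OS cells (1×10^4/well, plated 18-20 h) were preincubated 1 h at 37 °C with compound (12-point, 3-fold, 10 μM to 0.00006 μM), then stimulated 3 h with 0.25 μM LPA final. LiveBLAzer FRET B/G 460/530 nm emission ratio gave % inhibition; IC50 from 4-parameter variable-slope fit.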

[3] = system: pro-fibrotic and pro-inflammatory genes in bleomycin-induced skin fibrosis; assay: Bleomycin-evoked skin fibrosis model, skin gene expression (TaqMan); type: in vivo, C57B6J mice; settings: for % Inhibition by Concentration vs Bleo (mean ± SEM), Col1a1 gene / % Inhibition by Concentration vs Bleo (mean ± SEM), Col6a3 gene / % Inhibition by Concentration vs Bleo (mean ± SEM), Col8a1 gene / % Inhibition by Concentration vs Bleo (mean ± SEM), Fn1 gene / % Inhibition by Concentration vs Bleo (mean ± SEM), Lpar1 gene / % Inhibition by Concentration vs Bleo (mean ± SEM), Mmp2 gene / % Inhibition by Concentration vs Bleo (mean ± SEM), Serpine1 gene / % Inhibition by Concentration vs Bleo (mean ± SEM), Timp1 gene: skin
Method: as §1, §2, §3
For tissue gene expression measurement, an 8-mm skin biopsy punch was homogenized in 300 μL RLT buffer containing β-mercaptoethanol (1:100) and using a QIAgen TissueLyser II. RNA was then extracted using the RNeasy Fibrous Mini Kit and purified RNA analyzed for gene expression using TaqMan Kits (Thermofisher) with indicated probes (Table B). Expression data for each sample were normalized to the housekeeping gene (Rplp0) and expressed as fold change relative to the sham treated mice.
as §4, §5

[4] = 4.5x mg/kg PO BID Day 10-28, vs bleomycin/vehicle
[5] = 1x mg/kg PO BID Day 10-28, vs bleomycin/vehicle
[6] = 3x mg/kg PO BID Day 10-28, vs bleomycin/vehicle
[7] = 10x mg/kg PO BID Day 10-28, vs bleomycin/vehicle

T1 sequence (Q92633 whole entry): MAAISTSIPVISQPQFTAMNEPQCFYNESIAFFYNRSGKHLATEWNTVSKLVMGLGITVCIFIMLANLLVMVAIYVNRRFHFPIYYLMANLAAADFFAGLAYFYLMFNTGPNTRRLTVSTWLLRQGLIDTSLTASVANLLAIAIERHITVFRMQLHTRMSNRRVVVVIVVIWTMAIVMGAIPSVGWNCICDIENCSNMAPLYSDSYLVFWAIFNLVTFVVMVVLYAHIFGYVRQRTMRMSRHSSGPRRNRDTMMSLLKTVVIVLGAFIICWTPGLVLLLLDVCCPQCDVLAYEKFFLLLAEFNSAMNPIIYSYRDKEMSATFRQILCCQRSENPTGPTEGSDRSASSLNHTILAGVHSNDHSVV

`Cc1cccc(-c2[nH]c(C(C)(C)C)nc2-c2ccc3nccnc3c2)n1` [SB-525334, reference compound] was tested, and the “% Inhibition by Drug Treatment, CXCL1 protein” value (from here on “% Inhibition … CXCL1 protein”) [1, 4] was 49* %, the “% Inhibition by Drug Treatment, Fibronectin protein” value (“% Inhibition … Fibronectin protein” for short) [1, 4] was 82*** % and the “% Inhibition by Drug Treatment, Procollagen1a1 protein” value (shortened to “% Inhibition … Procollagen1a1 protein”) [1, 4] was 69*** %. For the same compound, the “% Inhibition by Drug Treatment, MCP-1 protein” value (shortened to “% Inhibition … MCP-1 protein”) ([1]; PO BID Day 10-28, vs bleomycin/vehicle) was 17%.

With `CC(C)c1ccnn1C1(C(=O)Nc2ccc(Cl)cc2OC(F)F)CCN(C[C@H](C(=O)O)C2CCOCC2)CC1` (single isomer, unassigned) [Compound 15] the IC50 [2] was 47.8 nM, the “% Inhibition … CXCL1 protein” value [1, 5] was 56** % and the “% Inhibition … Fibronectin protein” value [1, 5] was 29%. For the same compound, the “% Inhibition … MCP-1 protein” value [1, 5] was 50** %, the “% Inhibition … Procollagen1a1 protein” value [1, 5] was 67*** % and the “% Inhibition … CXCL1 protein” value [1, 6] was 71*** %. The “% Inhibition … Fibronectin protein” value [1, 6] was 46*** %, the “% Inhibition … MCP-1 protein” value [1, 6] was 59** % and the “% Inhibition … Procollagen1a1 protein” value [1, 6] was 74*** %. For the same compound, the “% Inhibition … CXCL1 protein” value [1, 7] was 76*** %, the “% Inhibition … Fibronectin protein” value [1, 7] was 46*** % and the “% Inhibition … MCP-1 protein” value [1, 7] was 73*** %. The “% Inhibition … Procollagen1a1 protein” value [1, 7] was 77*** %, the “key measures of skin inflammation and fibrosis” value ([3]; mice, 1×, 3×, and 10×mg/kg) was “significantly reduced” and the “% Inhibition by Concentration vs Bleo (mean ± SEM), Col1a1 gene” value (from here on “% Inhibition … (mean ± SEM), Col1a1 gene”) ([3]; 1x mg/kg PO BID Day 10-28) was 58 ± 12 %. The “% Inhibition by Concentration vs Bleo (mean ± SEM), Col6a3 gene” value (shortened to “% Inhibition … (mean ± SEM), Col6a3 gene”) ([3]; 1x mg/kg PO BID Day 10-28) was 62 ± 24%, the “% Inhibition by Concentration vs Bleo (mean ± SEM), Col8a1 gene” value (“% Inhibition … (mean ± SEM), Col8a1 gene” below) ([3]; 1x mg/kg PO BID Day 10-28) was 16 ± 23% and the “% Inhibition by Concentration vs Bleo (mean ± SEM), Fn1 gene” value (from here on “% Inhibition … (mean ± SEM), Fn1 gene”) ([3]; 1x mg/kg PO BID Day 10-28) was 31 ± 20%. The “% Inhibition by Concentration vs Bleo (mean ± SEM), Lpar1 gene” value (“% Inhibition … (mean ± SEM), Lpar1 gene” below) ([3]; 1x mg/kg PO BID Day 10-28) was 54 ± 24%, the “% Inhibition by Concentration vs Bleo (mean ± SEM), Mmp2 gene” value (“% Inhibition … (mean ± SEM), Mmp2 gene” for short) ([3]; 1x mg/kg PO BID Day 10-28) was 39 ± 26% and the “% Inhibition by Concentration vs Bleo (mean ± SEM), Serpine1 gene” value (“% Inhibition … (mean ± SEM), Serpine1 gene” for short) ([3]; 1x mg/kg PO BID Day 10-28) was 28 ± 31%. For the same compound, the “% Inhibition by Concentration vs Bleo (mean ± SEM), Timp1 gene” value (“% Inhibition … (mean ± SEM), Timp1 gene” for short) ([3]; 1x mg/kg PO BID Day 10-28) was 34 ± 21%, the “% Inhibition … (mean ± SEM), Col1a1 gene” value ([3]; 3x mg/kg PO BID Day 10-28) was 77 ± 8 % and the “% Inhibition … (mean ± SEM), Col6a3 gene” value ([3]; 3x mg/kg PO BID Day 10-28) was 108 ± 9 %. The “% Inhibition … (mean ± SEM), Col8a1 gene” value ([3]; 3x mg/kg PO BID Day 10-28) was 43 ± 14%, the “% Inhibition … (mean ± SEM), Fn1 gene” value ([3]; 3x mg/kg PO BID Day 10-28) was 76 ± 5 % and the “% Inhibition … (mean ± SEM), Lpar1 gene” value ([3]; 3x mg/kg PO BID Day 10-28) was 97 ± 9 %. For the same compound, the “% Inhibition … (mean ± SEM), Mmp2 gene” value ([3]; 3x mg/kg PO BID Day 10-28) was 81 ± 15 %, the “% Inhibition … (mean ± SEM), Serpine1 gene” value ([3]; 3x mg/kg PO BID Day 10-28) was 88 ± 5 % and the “% Inhibition … (mean ± SEM), Timp1 gene” value ([3]; 3x mg/kg PO BID Day 10-28) was 81 ± 7 %. The “% Inhibition … (mean ± SEM), Col1a1 gene” value ([3]; 10x mg/kg PO BID Day 10-28) was 88 ± 6 %, the “% Inhibition … (mean ± SEM), Col6a3 gene” value ([3]; 10x mg/kg PO BID Day 10-28) was 117 ± 8 % and the “% Inhibition … (mean ± SEM), Col8a1 gene” value ([3]; 10x mg/kg PO BID Day 10-28) was 55 ± 11 %. The “% Inhibition … (mean ± SEM), Fn1 gene” value ([3]; 10x mg/kg PO BID Day 10-28) was 75 ± 4 %, the “% Inhibition … (mean ± SEM), Lpar1 gene” value ([3]; 10x mg/kg PO BID Day 10-28) was 95 ± 8 % and the “% Inhibition … (mean ± SEM), Mmp2 gene” value ([3]; 10x mg/kg PO BID Day 10-28) was 55 ± 12%. The “% Inhibition … (mean ± SEM), Serpine1 gene” value ([3]; 10x mg/kg PO BID Day 10-28) was 75 ± 9 % and the “% Inhibition … (mean ± SEM), Timp1 gene” value ([3]; 10x mg/kg PO BID Day 10-28) was 84 ± 5 %.
